# Reference: patent publication US6399782B1, “Benzimidazole inhibitors of fructose 1,6-bisphosphatase” (Metabasis Therapeutics, Inc., priority 1997, dated 2002)
# Counter-ions that a name gives are not always drawn.
row,Structure (SMILES),melting point
1,"CC(C)Cn1c(-c2ccc(P(=O)(O)O)o2)nc2c(N)c(F)cc(CCCN(C)C)c21 (as salt: hydrobromid) [Compound 12.84, 4-Amino-5-fluoro-7-(3-N,N-dimethylpropylamine)-1-isobutyl-2-(2-phosphono-5-furanyl)benzimidazole hydrobromide salt]",208 to 212 °C (dec.)
2,Cl.NCCCCn1c(-c2ccc(P(=O)(O)O)o2)nc2cc(Cl)ccc21 (hydrate or solvate),236 to 240 °C (dec.)
3,"CC(C)Cn1c(-c2ccc(P(=O)(O)O)o2)nc2c(N)c(O)ccc21 [Compound 11.1, 4-Amino-5-hydroxy-1-isobutyl-2-(2-phosphono-5-furanyl)benzimidazole]",206 to 209 °C
4,"COc1ccc2c(nc(-c3ccc(P(=O)(O)O)o3)n2CC(C)C)c1N [Compound 12.55, 4-Amino-5-methoxy-1-isobutyl-2-(2-phosphono-5-furanyl)benzimidazole]",212 to 213 °C
5,"Nc1c(Br)c(Cl)c(Cl)c2nc(-c3ccc(P(=O)(O)O)o3)[nH]c12 [Compound 12.58, 4-Amino-5-bromo-6,7-dichloro-2-(2-phosphono-5-furanyl)benzimidazole]",224 to 225 °C
6,"CCCc1ccc2c(nc(-c3ccc(P(=O)(O)O)o3)n2CC(C)C)c1N [Compound 12.60, 4-Amino-5-propyl-1-isobutyl-2-(2-phosphono-5-furanyl)benzimidazole]",207 to 210 °C
7,"CCc1cc(F)c(N)c2c1nc(-c1ccc(P(=O)(O)O)o1)n2CC(C)C [Compound 12.65, 7-Amino-4-ethyl-6-fluoro-1-isobutyl-2-(2-phosphono-5-furanyl)benzimidazole]",249 to 250 °C
8,"CC(C)Cn1c(-c2ccc(P(=O)(O)O)o2)nc2c(N)c(F)cc(C3CC3)c21 [Compound 12.66, 4-Amino-7-cyclopropyl-5-fluoro-1-isobutyl-2-(2-phosphono-5-furanyl)benzimidazole]",250 to 255 °C (dec.)
9,"CC(C)Cn1c(-c2ccc(P(=O)(O)O)o2)nc2c(N)c(F)cc(-c3ccccc3)c21 [Compound 12.67, 4-Amino-7-phenyl-5-fluoro-1-isobutyl-2-(2-phosphono-5-furanyl)benzimidazole]",240 to 241 °C (dec.)
10,"CC(C)Cn1c(-c2ccc(P(=O)(O)O)o2)nc2c(N)c(F)cc(-c3ccc(F)cc3)c21 [Compound 12.68, 4-Amino-7-p-fluorophenyl-5-fluoro-1-isobutyl-2-(2-phosphono5-furanyl)benzimidazole]",239 to 240 °C (dec.)
11,"CC(C)Cn1c(-c2ccc(P(=O)(O)O)o2)nc2c(N)c(F)cc(-c3ccc(Cl)cc3)c21 [Compound 12.69, 4-Amino-7-p-chlorophenyl-5-fluoro-1-isobutyl-2-(2-phosphono-5-furanyl)benzimidazole]",235 to 236 °C (dec.)
12,"C=Cc1cc(F)c(N)c2nc(-c3ccc(P(=O)(O)O)o3)n(CC(C)C)c12 [Compound 12.70, 4-Amino-7-vinyl-5-fluoro-1-isobutyl-2-(2-phosphono-5-furanyl)benzimidazole]",238 to 242 °C
13,"CCC(CC)Cn1c(-c2ccc(P(=O)(O)O)o2)nc2c(N)c(F)ccc21 [Compound 12.73, 4-Amino-5-fluoro-1-(2-ethylbutyl)-2-(2-phosphono-5-furanyl)benzimidazole]",178 to 182 °C (dec.)
14,"COc1cccc(-c2cc(F)c(N)c3nc(-c4ccc(P(=O)(O)O)o4)n(CC(C)C)c23)c1 [Compound 12.74, 4-Amino-7-m-methoxyphenyl-5-fluoro-1-isobutyl-2-(2-phosphono-5-furanyl)benzimidazole]",208 to 212 °C (dec.)
15,"CCc1cc(F)c(N)c2nc(-c3ccc(P(=O)(O)O)o3)n(CC3CC3)c12 [Compound 12.75, 4-Amino-7-ethyl-5-fluoro-1-cyclopropylmethyl-2-(2-phosphono-5-furanyl)benzimidazole]",178 to 185 °C
16,"CCC(CC)n1c(-c2ccc(P(=O)(O)O)o2)nc2c(N)c(F)ccc21 [Compound 12.76, 4-Amino-5-fluoro-1-(3-pentyl)-2-(2-phosphono-5-furanyl)benzimidazole]",180 to 185 °C (dec.)
17,"CC(C)Cn1c(-c2ccc(P(=O)(O)O)o2)nc2cc(F)c(F)c(F)c21 [Compound 12.77, 5,6,7-Trifluoro-1-isobutyl-2-(2-phosphono-5-furanyl)benzimidazole]",250 to 260 °C
18,"CC(C)Cn1c(-c2ccc(P(=O)(O)O)o2)nc2c(F)c(F)c(F)cc21 [Compound 12.78, 4,5,6-Trifluoro-1-isobutyl-2-(2-phosphono-5-furanyl)benzimidazole]",155 to 158 °C
19,"CCCc1cc(F)c(N)c2nc(-c3ccc(P(=O)(O)O)o3)n(CC(C)C)c12 [Compound 12.81, 4-Amino-5-fluoro-7-n-propyl-1-isobutyl-2-(2-phosphono-5-furanyl)benzimidazole]",220 to 230 °C (dec.)
20,"CC(C)Cn1c(-c2ccc(P(=O)(O)O)o2)nc2c(N)c(F)cc(CCCCCl)c21 [Compound 12.83, 4-Amino-5-fluoro-7-(4-chlorobutyl)-1-isobutyl-2-(2-phosphono-5-furanyl)benzimidazole]",210 to 220 °C (dec.)

# Results, then the molecule that gave them:
row,melting point,Structure (SMILES)
1,209 to 212 °C,"Cc1cc(C)c2nc(-c3ccc(P(=O)(O)O)o3)n(CC(C)C)c2c1 (hydrate or solvate) [Compound 13.85, 1-Isobutyl-4,6-dimethyl-2-(2-phosphono-5-furanyl)benzimidazole]"
2,196 to 200 °C,"Cc1cc(C)c2c(c1)nc(-c1ccc(P(=O)(O)O)o1)n2CC(C)C (hydrate or solvate) [Compound 13.87, 1-Isobutyl-5,7-dimethyl-2-(2-phosphono-5-furanyl)benzimidazole]"
3,207 to 208 °C,"Cc1c(C)c(C)c2c(nc(-c3ccc(P(=O)(O)O)o3)n2CC2CC2)c1C (hydrate or solvate) [Compound 13.88, 1-Cyclopropylmethyl-4,5,6,7-tetramethyl-2-(2-phosphono-5-furanyl)benzimidazole]"
4,250 to 252 °C (dec.),"NCCCCn1c(-c2ccc(P(=O)(O)O)o2)nc2ccc(Cl)cc21 (hydrate or solvate) [Compound 13.95, 1-(4-Aminobutyl)-6-chloro-2-(2-phosphono-5-furanyl)benzimidazole]"
5,> 250 °C,"O=P(O)(O)c1ccc(-c2nc3ccccc3[nH]2)o1 [Compound 13.1, 2-(2-Phosphono-5-furanyl)benzimidazole]"
6,200 to 203 °C,"CC(C)Cn1c(-c2ccc(P(=O)(O)O)o2)nc2ccccc21 [Compound 13.2, 1-Isobutyl-2-(2-phosphono-5-furanyl)benzimidazole]"
7,196 to 200 °C,"O=P(O)(O)c1ccc(-c2nc3ccccc3n2-c2ccccc2)o1 [Compound 13.12, 1-Phenyl-2-(2-phosphono-5-furanyl)benzimidazole]"
8,220 to 224 °C,"O=C(O)c1ccccc1-n1c(-c2ccc(P(=O)(O)O)o2)nc2cc(Cl)ccc21 [Compound 13.13, 1-(2-Carboxyphenyl)-2-(2-phosphono-5-furanyl)-5-chloro benzimidazole]"
9,238 °C,"CC(C)Cn1c(-c2ccc(P(=O)(O)O)o2)nc2cc(Cl)ccc21 [Compound 13.16, 5-Chloro-1-isobutyl-2-(2-phosphono-5-furanyl)benzimidazole]"
10,350 °C,"CC(C)COc1cccc2c1nc(-c1ccc(P(=O)(O)O)o1)n2CC(C)C [Compound 13.20, 1-Isobutyl-4-isobutyloxy-2-(2-phosphono-5-furanyl)benzimidazole]"
11,202 to 205 °C,"CC(C)Cn1c(-c2ccc(P(=O)(O)O)o2)nc2ccc(F)cc21 [Compound 13.27, 6-Fluoro-1-isobutyl-2-(2-phosphono-5-furanyl)benzimidazole]"
12,192 to 195 °C,"CC(C)n1c(-c2ccc(P(=O)(O)O)o2)nc2cc(Cl)ccc21 [Compound 13.33, 5-Chloro-1-isopropyl-2-(2-phosphono-5-furanyl)benzimidazole]"
13,155 to 175 °C,"CC(C)Cn1c(-c2ccc(P(=O)(O)O)o2)nc2c(Cl)cc(Cl)cc21 [Compound 13.39, 4,6-Dichloro-1-isobutyl-2-(2-phosphono-5-furanyl)benzimidazole]"
14,150 to 210 °C,"CC(C)Cn1c(-c2ccc(P(=O)(O)O)o2)nc2c(Br)cc(Br)cc21 [Compound 13.43, 4,6-Dibromo-1-isobutyl-2-(2-phosphono-5-furanyl)benzimidazole]"
15,225 to 227 °C,"CC(C)Cn1c(-c2ccc(P(=O)(O)O)o2)nc2cc(Cl)c(Cl)cc21 [Compound 13.44, 5,6-Dichloro-1-isobutyl-2-(2-phosphono-5-furanyl)benzimidazole]"
16,180 to 210 °C,"O=P(O)(O)c1ccc(-c2nc3cc(Cl)c(Cl)cc3n2CC2CC2)o1 [Compound 13.45, 5,6-Dichloro-1-cyclopropylmethyl-2-(2-phosphono-5-furanyl)benzimidazole]"
17,196 to 199 °C,"CC(C)Cn1c(-c2ccc(P(=O)(O)O)o2)nc2cc(Cl)c(F)cc21 [Compound 13.50, 5-Chloro-6-fluoro-1-isobutyl-2-(2-phosphono-5-furanyl)benzimidazole]"
18,205 to 209 °C,"Cc1c(Br)cc2c(nc(-c3ccc(P(=O)(O)O)o3)n2CC(C)C)c1C [Compound 13.53, 4,5-Dimethyl-6-bromo-1-isobutyl-2-(2-phosphono-5-furanyl)benzimidazole]"
19,208 to 211 °C,"Cc1cccc2c1nc(-c1ccc(P(=O)(O)O)o1)n2CC(C)C [Compound 13.54, 4-Methyl-1-isobutyl-2-(2-phosphono-5-furanyl)benzimidazole]"
20,184 to 185 °C,"COc1cccc(-n2c(-c3ccc(P(=O)(O)O)o3)nc3ccc(Cl)cc32)c1 [Compound 13.65, 6-Chloro-1-(3-methoxyphenyl)-2-(2-phosphono-5-furanyl)benzimidazole]"
21,161 to 165 °C,"CC(C)Cn1c(-c2ccc(P(=O)(O)O)o2)nc2cc(F)c([N+](=O)[O-])c(Br)c21 [Compound 13.68, 1-Isobutyl-5-fluoro-6-nitro-7-bromo-2-(2-phosphono-5-furanyl)benzimidazole]"
